In assay [1] the target is His-tagged human recombinant kinase full-length Akt1 (Homo sapiens (Human), UniProt P31749). The assay is described as follows: Akt1 kinase assay (Akt1 TR-FRET assay). The class given is biochemical. Conditions: 10 μM ATP, 60 min at 22° C., read-out: Akt1 median IC50.
Text: Biological Assay 1.0: Akt1 Kinase Assay
Akt1 inhibitory activity of compounds of the present invention was quantified employing the Akt1 TR-FRET assay as described in the following paragraphs.
His-tagged human recombinant kinase full-length Akt1 expressed in insect cells was purchased form Invitrogen (part number PV 3599). As substrate for the kinase reaction the biotinylated peptide biotin-Ahx-[sequence] (C-terminus in amide form) was used which can be purchased e.g. from the company Biosynthan GmbH (Berlin-Buch, Germany).
For the assay 50 nl of a 100 fold concentrated solution of the test compound in DMSO was pipetted into a black low volume 384 well microtiter plate (Greiner Bio-One, Frickenhausen, Germany), 2 μl of a solution of Akt1 in assay buffer [50 mM TRIS/HCl pH 7.5, 5 mM MgCl2, 1 mM dithiothreitol, 0.02% (v/v) Triton X-100 (Sigma)] were added and the mixture was incubated for 15 min at 22° C. to allow pre-binding of the test compounds to the enzyme before the start of the kinase reaction. Then the kinase reaction was started by the addition of 3 μl of a solution of adenosine-tri-phosphate (ATP, 16.7 μM=>final conc. in the 5 μl assay volume is 10 μM) and substrate (1.67 μM=>final conc. in the 5 μl assay volume is 1 μM) in assay buffer and the resulting mixture was incubated for a reaction time of 60 min at 22° C. The concentration of Akt1 in the assay was adjusted depending of the activity of the enzyme lot and was chosen appropriate to have the assay in the linear range, typical enzyme concentrations were in the range of about 0.05 ng/μl (final conc. in the 5 μl assay volume). The reaction was stopped by the addition of 5 μl of a solution of HTRF detection reagents (200 nM streptavidine-XL665 [Cisbio] and 1.5 nM anti-phosho-Serine antibody [Millipore, cat. #35-001] and 0.75 nM LANCE Eu-W 1024 labeled anti-mouse IgG antibody [Perkin Elmer]) in an aqueous EDTA-solution (100 mM EDTA, 0.1% (w/v) bovine serum albumin in 50 mM HEPES/NaOH pH 7.5). The resulting mixture was incubated 1 h at 22° C. to allow the binding of the biotinylated phosphorylated peptide to the streptavidine-XL665 and the antibodies. Subsequently the amount of phosphorylated substrate was evaluated by measurement of the resonance energy transfer from the anti-mouse-IgG-Eu-Chelate to the streptavidine-XL665. Therefore, the fluorescence emissions at 620 nm and 665 nm after excitation at 350 nm was measured in a HTRF reader, e.g. a Rubystar (BMG Labtechnologies, Offenburg, Germany) or a Viewlux (Perkin-Elmer). The ratio of the emissions at 665 nm and at 622 nm was taken as the measure for the amount of phosphorylated substrate.
Assay [2] deals with His-tagged human recombinant kinase full-length Akt2 (Homo sapiens (Human), UniProt P31751). Put plainly: Akt2 kinase assay (Akt2 TR-FRET assay). It counts as biochemical. Conditions: 10 μM ATP, 60 min at 22° C., read-out: Akt2 median IC50.
His-tagged human recombinant kinase full-length Akt2, sequence (P31751 whole entry): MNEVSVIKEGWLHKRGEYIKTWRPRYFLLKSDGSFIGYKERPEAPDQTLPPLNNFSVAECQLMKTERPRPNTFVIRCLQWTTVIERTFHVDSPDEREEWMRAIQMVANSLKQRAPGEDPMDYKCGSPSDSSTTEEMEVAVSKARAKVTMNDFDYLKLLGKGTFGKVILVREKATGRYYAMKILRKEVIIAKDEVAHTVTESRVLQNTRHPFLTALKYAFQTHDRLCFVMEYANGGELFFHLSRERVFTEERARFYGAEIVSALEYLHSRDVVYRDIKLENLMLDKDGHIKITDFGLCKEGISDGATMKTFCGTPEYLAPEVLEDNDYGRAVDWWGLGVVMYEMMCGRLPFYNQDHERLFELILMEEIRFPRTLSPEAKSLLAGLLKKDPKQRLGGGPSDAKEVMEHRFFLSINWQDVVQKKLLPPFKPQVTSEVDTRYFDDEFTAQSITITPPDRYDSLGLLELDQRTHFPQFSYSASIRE
Text: Akt2 inhibitory activity of compounds of the present invention was quantified employing the Akt2 TR-FRET assay as described in the following paragraphs.
His-tagged human recombinant kinase full-length Akt2 expressed in insect cells and activated by PDK1 was purchased form Invitrogen (part number PV 3975). As substrate for the kinase reaction the biotinylated peptide biotin-Ahx-[sequence] (C-terminus in amide form) was used which can be purchased e.g. from the company Biosynthan GmbH (Berlin-Buch, Germany). For the assay 50 nl of a 100 fold concentrated solution of the test compound in DMSO was pipetted into a black low volume 384 well microtiter plate (Greiner Bio-One, Frickenhausen, Germany), 2 μl of a solution of Akt2 in assay buffer [50 mM TRIS/HCl pH 7.5, 5 mM MgCl2, 1 mM dithiothreitol, 0.02% (v/v) Triton X-100 (Sigma)] were added and the mixture was incubated for 15 min at 22° C. to allow pre-binding of the test compounds to the enzyme before the start of the kinase reaction. Then the kinase reaction was started by the addition of 3 μl of a solution of adenosine-tri-phosphate (ATP, 16.7 μM=>final conc. in the 5 μl assay volume is 10 μM) and substrate (1.67 μM=>final conc. in the 5 μl assay volume is 1 μM) in assay buffer and the resulting mixture was incubated for a reaction time of 60 min at 22° C. The concentration of Akt2 in the assay was adjusted depending of the activity of the enzyme lot and was chosen appropriate to have the assay in the linear range, typical enzyme concentrations were in the range of about 0.2 ng/μl (final conc. in the 5 μl assay volume). The reaction was stopped by the addition of 5 μl of a solution of HTRF detection reagents (200 nM streptavidine-XL665 [Cisbio] and 1.5 nM anti-phosho-Serine antibody [Millipore, cat. #35-001] and 0.75 nM LANCE Eu-W 1024 labeled anti-mouse IgG antibody [Perkin Elmer]) in an aqueous EDTA-solution (100 mM EDTA, 0.1% (w/v) bovine serum albumin in 50 mM HEPES/NaOH pH 7.5). The resulting mixture was incubated 1 h at 22° C. to allow the binding of the biotinylated phosphorylated peptide to the streptavidine-XL665 and the antibodies. Subsequently the amount of phosphorylated substrate was evaluated by measurement of the resonance energy transfer from the anti-mouse-IgG-Eu-Chelate to the streptavidine-XL665. Therefore, the fluorescence emissions at 620 nm and 665 nm after excitation at 350 nm was measured in a TR-FRET reader, e.g. a Rubystar (BMG Labtechnologies, Offenburg, Germany) or a Viewlux (Perkin-Elmer). The ratio of the emissions at 665 nm and at 622 nm was taken as the measure for the amount of phosphorylated substrate.
The test system of assay [3] is phospho-AKT at S473. Put plainly: Cellular p-AKT1/2/3-S473 assay in KPL-4 cells. The class given is cell-based. Conditions: Homo sapiens, KPL4; KPL-4 breast tumour cell line, compound treatment 2 hours; read-out: pAKT-S473 median IC50.
Experimental: (§1) The molecular mechanism of action was investigated in a set of experiments to assess the inhibition of the PI3K-AKT-mTOR pathway in responsive cell lines such as KPL-4 breast tumour cell line (PIK3CA^H1047R, HER2^O/E and hormone independent). The phospho-substrates of PI3K-AKT-mTOR axis were used as the read-outs to reflect pathway inhibition. Cells were seeded at 60-80% confluency per well in 96-well cell culture plates. After overnight incubation at 37° C. 5% CO2, cells were treated with compounds and vehicle at 37° C. for 2 hours. […] All measurements where at least done in duplicates and confirmed by independent repetition.
Alternatively pAKT-S473 was measured using the “Akt Duplex” of the MULTI-SPOT® Assay System (Fa. Meso Scale Discovery, Cat#N41100B-1) following manufacturers instructions. Each assay used 20 μg of protein extract and measured total AKT and p-AKT content simultaneously in one well. All measurements where at least done in duplicates and confirmed by independent repetition. Values for P-AKT are expressed as percentage of P-AKT level compared to total-AKT content of the extracts.
The subject of assay [4] is p-4E-BP1 at T70. The assay is described as follows: Cellular p-4E-BP1-T70 assay in KPL-4 cells. It counts as cell-based. Conditions: Homo sapiens, KPL4; KPL-4 breast tumour cell line, compound treatment 2 hours; read-out: P4EBP1-T70 median IC50.
Experimental: as §1
Assay [5] has as its system KPL-4 breast cancer cell line. The assay is described as follows: Tumor cell proliferation assay (CellTiter-Glo), KPL-4. Conditions: Homo sapiens, KPL4, 72 h drug exposure, read-out: KLP-4 median IC50. It counts as cell-based.
Experimental: Biological Assay 4.0: Tumor Cell Proliferation Assays
Compounds were tested in a cell-based assay that measures the capacity of the compounds to inhibit tumour cell proliferation following a 72 h drug exposure. Cell viability is determined using CellTiter-Glow® (CTG, Promega, cat#G7571/2/3). The CellTiter-Glo® Luminescent Cell Viability Assay is a homogeneous method to determine the number of viable cells in culture.
Detection is based on using the luciferase reaction to measure the amount of ATP from viable cells. The amount of ATP in cells correlates with cell viability. Within minutes after a loss of membrane integrity, cells lose the ability to synthesize ATP, and endogenous ATPases destroy any remaining ATP; thus the levels of ATP fall precipitously.
For each cell line assayed, cells were plated onto a separate plate for determination of fluorescence at t=0 hour and t=72 hour time points. Following overnight incubation at 37° C., chemiluminescence values for the t=0 samples were determined after adding 10 μl medium and 100 μl CTG solution according to manufacture protocol. Plates for the t=72 hour time points were treated with compounds diluted into growth medium at ten times final concentration added in 10 μL to the cell culture plate. Cells were then incubated for 72 hours at 37° C. Chemiluminescence values for the t=72 hour samples were determined. […] Experiments were controlled using a reference compound as standard.
The test system of assay [6] is MCF-7 breast tumour cell line. Put plainly: Tumor cell proliferation assay (CellTiter-Glo), MCF-7. The class given is cell-based. Conditions: Homo sapiens, MCF7, 72 h drug exposure, read-out: MCF-7 median IC50.

His-tagged human recombinant kinase full-length Akt1, sequence (P31749 whole entry): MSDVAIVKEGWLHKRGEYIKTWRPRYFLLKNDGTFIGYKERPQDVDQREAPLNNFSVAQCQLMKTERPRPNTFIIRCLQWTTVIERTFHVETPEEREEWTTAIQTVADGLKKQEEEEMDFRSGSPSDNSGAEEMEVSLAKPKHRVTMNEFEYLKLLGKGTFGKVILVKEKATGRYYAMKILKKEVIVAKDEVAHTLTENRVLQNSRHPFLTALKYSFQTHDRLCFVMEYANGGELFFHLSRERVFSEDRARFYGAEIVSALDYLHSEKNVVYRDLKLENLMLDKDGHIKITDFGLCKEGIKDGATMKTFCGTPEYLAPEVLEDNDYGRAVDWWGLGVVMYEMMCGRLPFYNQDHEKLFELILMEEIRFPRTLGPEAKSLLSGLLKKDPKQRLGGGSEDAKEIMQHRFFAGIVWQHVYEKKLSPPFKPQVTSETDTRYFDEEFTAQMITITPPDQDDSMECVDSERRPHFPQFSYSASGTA

Turning to `COc1cc(-c2cc[nH]n2)c2nc(-c3ccc(C4(N)CCC4)cc3)c(-c3ccccc3)n2n1` [Example 73, 1-{4-[6-Methoxy-3-phenyl-8-(1H-pyrazol-3-yl)imidazo[1,2-b]pyridazin-2-yl]-phenyl}cyclobutanamine], the IC50 in assay [1] was found to be 4.3 nM; in assay [2] it was 43 nM; in assay [3], 230 nM; in assay [4], 1700 nM; in assay [5], 1800 nM; in assay [6], 2000 nM.
As for `COc1cc(-c2ccncc2)c2nc(-c3ccc(C4(N)CCC4)cc3)c(-c3ccccc3)n2n1` [Example 75, 1-{4-[6-Methoxy-3-phenyl-8-(pyridin-4-yl)imidazo[1,2-b]pyridazin-2-yl]phenyl}cyclobutanamine], the IC50 in assay [1] turned out to be 21 nM; in assay [2], 100 nM; in assay [3], 230 nM; in assay [4], 1500 nM; in assay [5] it was 1800 nM; in assay [6] it was 1800 nM.
With `CCOc1cc(OCC)c2nc(-c3ccc(C4(N)CCC4)cc3)c(-c3ccccc3)n2n1` [Example 76, 1-[4-(6,8-Diethoxy-3-phenylimidazo[1,2-b]pyridazin-2-yl)phenyl]cyclobutanamine], the IC50 in assay [1] is 11 nM; in assay [2], 23 nM; in assay [3], 120 nM; in assay [4] it was 940 nM; in assay [5], 1700 nM; in assay [6] it was 940 nM.
`CCCCOc1cc(OCC)nn2c(-c3ccccc3)c(-c3ccc(C4(N)CCC4)cc3)nc12` [Example 77, 1-[4-(8-Butoxy-6-ethoxy-3-phenylimidazo[1,2-b]pyridazin-2-yl)phenyl]-cyclobutanamine]: the IC50 in assay [1] was determined as 10 nM; in assay [2] it was 61 nM; in assay [3], 460 nM; in assay [4], 1400 nM; in assay [5], 1900 nM; in assay [6], 1700 nM.
In the case of `NC1(c2ccc(-c3nc4ccc(O)nn4c3-c3ccccc3)cc2)CCC1` [Example 79, 2-[4-(1-Aminocyclobutyl)phenyl]-3-phenylimidazo[1,2-b]pyridazin-6-ol], the IC50 was 2000 nM in assay [1]; 2800 nM in assay [2]; 210 nM in assay [3]; 910 nM in assay [4]; 10000 nM in assay [5]; 10000 nM in assay [6].
For `COC(=O)COc1ccc2nc(-c3ccc(C4(N)CCC4)cc3)c(-c3ccccc3)n2n1` [Example 80, Methyl ({2-[4-(1-aminocyclobutyl)phenyl]-3-phenylimidazo[1,2-b]pyridazin-6-yl}oxy)acetate], the IC50 worked out at 96 nM in assay [1]; 610 nM in assay [2]; 190 nM in assay [3]; 9800 nM in assay [4]; 10000 nM in assay [5]; 10000 nM in assay [6].

Values taken from patent US9604989B2, “Imidazopyridazines as Akt kinase inhibitors” (Bayer Intellectual Property GmbH, priority 2011, dated 2017).
